In patent US4241052A, “Novel nitrosourea compounds and process for preparing the same” (Tanabe Seiyaku Co., Ltd., priority 1978, dated 1980):

Experiments:
[1] = Preventive effect against the growth of Ehrlich ascites carcinoma (Method A); assay type: in vivo, mice (ICR, female); settings: mouse, in vivo, ip; max dose, 100% inhibition without death; doses of the table in mg/kg/day; read-out: MTD (Maximum Tolerated Dose)
Experimental: (§1) (A) Preventive effect against the growth of Ehrlich ascites tumor
(§2) 10^6 tumor cells of Ehrlich ascites carcinoma were inoculated intraperitoneally into a group of five femal mice (ICR mice, body weight: 19-23 g). A test compound was dissolved in a physiological saline solution and administered intraperitoneally to the mice. The administration of the test compound was began 24 hours after the inoculation of the tumor cells and performed once a day for 5 days. The volume of ascites in the treated mice were measured after 7 days of the experiment.

[2] = test system: Ehrlich ascites carcinoma; test: as above; assay type: in vivo, mice (ICR, female); settings: for inhibition in vivo at 1.56 mg/kg: 1.56 mg/kg/day i.p.; for inhibition in vivo at 6.25 mg/kg: 6.25 mg/kg/day i.p.; for inhibition in vivo at 100 mg/kg: 100 mg/kg/day i.p.; for inhibition in vivo at 400 mg/kg: 400 mg/kg/day i.p.; for minimal effective dose: 168 h, min dose, 100% inhibition, read-out: MED (Minimum Effective Dose)
Experimental: as §1, §2

[3] = test system: Leukemia L-1210; test: Effect on life span of mice implanted with leukemic cells of L-1210 (Method B); assay type: in vivo, mice (BDF1, male); settings: 5 days
Experimental: (B) Effect on the life span of mice implanted with leukemic cells of L-1210
10^5 leukemic cells of L-1210 were inoculated intraperitoneally into a group of four male mice (BDF1 mice, body weight: 19-23 g). A test compound was dissolved in a physiological saline solution and administered intraperitoneally to the mice. The administration of the test compound was began 24 hours after the inoculation of the leukemic cells and performed once a day for 5 days. The survival days of the treated mice were observed.

[4] = test system: leukemic cells; settings: Japanese Patent Publication No. 141815/1976; cited from earlier work
[5] = test system: tumor cells of lymphoid leukemia L-1210; settings: tumor cells implanted intraperitoneally; U.S. Pat. No. 4086451 and Japanese publications; cited from earlier work
[6] = Mus musculus, Ehrlich, ip, 120 h, 0.78 mg/kg/day i.p., 5 days, read-out: Inhibition ratio
[7] = Mus musculus, Ehrlich, ip, 120 h, 5 days, read-out: Inhibition ratio
[8] = Mus musculus, Ehrlich, ip, 120 h, 25 mg/kg/day i.p., 5 days, read-out: Inhibition ratio
[9] = Mus musculus, Ehrlich, ip, doses of the table in mg/kg/day
[10] = Mus musculus, Ehrlich, ip, 120 h, 0.39 mg/kg/day i.p., 5 days, read-out: Inhibition ratio

SMILES | MTD at 168 h [1] [mg/kg/day] | Toxic (number of mice died/number of mice used) ([2]; 800 mg/kg/day i.p., 5 days) | Therapeutic index (MTD/MED) [2] | inhibition in vivo at 0.78 mg/kg [2, 6] [%] | inhibition in vivo at 1.56 mg/kg [2, 7] [%] | inhibition in vivo at 6.25 mg/kg [2, 7] [%] | inhibition in vivo at 25 mg/kg [2, 8] [%] | inhibition in vivo at 100 mg/kg [2, 7] [%] | inhibition in vivo at 400 mg/kg [2, 7] [%] | minimal effective dose [2, 9] [mg/kg/day] | 60-day survivors (mice survived/mice used) ([3]; 25 mg/kg/day i.p.) | ILS ([3]; 25 mg/kg/day i.p.) [%] | 60-day survivors (mice survived/mice used) ([3]; 100 mg/kg/day i.p.) | ILS ([3]; 100 mg/kg/day i.p.) [%] | 60-day survivors (mice survived/mice used) ([3]; 200 mg/kg/day i.p.) | ILS ([3]; 200 mg/kg/day i.p.) [%] | Toxic (number of mice died/number of mice used) ([2]; 200 mg/kg/day i.p., 5 days) | inhibition in vivo at 0.39 mg/kg [2, 10] [%] | 60-day survivors (mice survived/mice used) ([3]; 6.25 mg/kg/day i.p.) | ILS ([3]; 6.25 mg/kg/day i.p.) [%] | further results
O=NN(CCCl)C(=O)N(Cc1ccco1)C1O[C@H](CO)[C@@H](O[C@H]2O[C@H](CO)[C@@H](O)[C@H](O)[C@H]2O)[C@H](O)[C@H]1O (stereo partly drawn) [Compound 6, 1-(2-chloroethyl)-1-nitroso-3-furfuryl-3-[O-α-D-glucopyranosyl-(1→4)-D-glucopyranosyl]urea] | 400 | 5/5 | 128 | 21.6 | 76.5 | 100 | 100 | 100 | 100 | 3.12 | 0/4 | 65.3 | 2/4 | > 351.4 | 4/4 | > 733.3 |  |  |  |  | inhibition in vivo at 3.12 mg/kg ([2]; Mus musculus, Ehrlich, ip, 120 h, 3.12 mg/kg/day i.p., 5 days, read-out: Inhibition ratio): 100%
O=NN(CCCl)C(=O)N(CC1CC1)C1OC[C@H](O)[C@H](O)[C@H]1O (stereo partly drawn) [Compound 10, 1-(2-chloroethyl)-1-nitroso-3-cyclopropylmethyl-3-(L-arabinopyranosyl)urea] | 100 |  | 128 | 100 | 100 | 100 | 100 | 100 |  | 0.78 | 4/4 | > 721.9 |  |  |  |  | 5/5 | 79.5 | 0/4 | 82.2 | inhibition in vivo at 0.19 mg/kg ([2]; Mus musculus, Ehrlich, ip, 120 h, 0.19 mg/kg/day i.p., 5 days, read-out: Inhibition ratio): 17.9%; 60-day survivors (mice survived/mice used) ([3]; 50 mg/kg/day i.p.): 4/4; ILS ([3]; 50 mg/kg/day i.p.): > 721.9%
O=NN(CCCl)C(=O)NC1O[C@H](CO)[C@@H](O[C@@H]2O[C@H](CO)[C@H](O)[C@H](O)[C@H]2O)[C@H](O)[C@H]1O (stereo partly drawn) [1-(2-chloroethyl)-1-nitroso-3-(D-lactosyl)urea] |  |  |  |  |  |  |  |  |  |  |  |  |  |  |  |  |  |  |  |  | anti-tumor activity against leukemic cells [4]: show anti-tumor activity
O=NN(CCCl)C(=O)NC1O[C@H](CO)[C@@H](O[C@H]2O[C@H](CO)[C@@H](O)[C@H](O)[C@H]2O)[C@H](O)[C@H]1O (stereo partly drawn) [1-(2-chloroethyl)-1-nitroso-3-(D-maltosyl)urea] |  |  |  |  |  |  |  |  |  |  |  |  |  |  |  |  |  |  |  |  | anti-tumor activity against leukemic cells [4]: show anti-tumor activity
O=NN(CCCl)C(=O)N(Cc1ccccc1)C1O[C@H](CO)[C@@H](O[C@H]2O[C@H](CO)[C@@H](O)[C@H](O)[C@H]2O)[C@H](O)[C@H]1O (stereo partly drawn) [Compound 1, 1-(2-chloroethyl)-1-nitroso-3-benzyl-3-[O-α-D-glucopyranosyl-(1→4)-D-glucopyranosyl]urea] | 400 | 5/5 | 256 | 66.7 | 100 | 100 | 100 | 100 | 100 | 1.56 | 0/4 | 55.2 | 1/4 | > 236.8 | 4/4 | > 589.7 |  | 9.3 |  |  | 
COc1ccc(CN(C(=O)N(CCCl)N=O)C2O[C@H](CO)[C@@H](O[C@H]3O[C@H](CO)[C@@H](O)[C@H](O)[C@H]3O)[C@H](O)[C@H]2O)cc1 (stereo partly drawn) [Compound 3, 1-(2-chloroethyl)-1-nitroso-3-(p-methoxybenzyl)-3-[O-α-D-glucopyranosyl-(1→4)-D-glucopyranosyl]urea] | 400 | 5/5 | 256 | 23.1 | 100 | 100 | 100 | 100 | 100 | 1.56 | 0/4 | 50.7 |  |  | 2/4 | > 328.8 |  |  |  |  | 60-day survivors (mice survived/mice used) ([3]; 400 mg/kg/day i.p.): 4/4; ILS ([3]; 400 mg/kg/day i.p.): > 721.9%
O=NN(CCCl)C(=O)N(CC1CC1)C1O[C@H](CO)[C@H](O)[C@H](O)[C@H]1O (stereo partly drawn) [Compound 8, 1-(2-chloroethyl)-1-nitroso-3-cyclopropylmethyl-3-(D-galactopyranosyl)urea] | 100 |  | 128 | 100 | 100 | 100 | 100 | 100 |  | 0.78 | 4/4 | > 650.0 |  |  |  |  | 3/5 | 21.1 | 0/4 | 53.8 | 60-day survivors (mice survived/mice used) ([3]; 50 mg/kg/day i.p.): 4/4; ILS ([3]; 50 mg/kg/day i.p.): > 650.0%
O=NN(CCCl)C(=O)N(CC1CCCO1)C1O[C@H](CO)[C@H](O)[C@H](O)[C@H]1O (stereo partly drawn) [Compound 9, 1-(2-chloroethyl)-1-nitroso-3-tetrahydrofurfuryl-3-(D-galactopyranosyl)urea] | 100 |  | 64 | 37.5 | 100 | 100 | 100 | 100 |  | 1.56 | 4/4 | > 689.5 | 4/4 | > 689.5 |  |  | 5/5 | 6.2 | 0/4 | 55.3 | 
O=NN(CCCl)C(=O)N[C@@H]1O[C@H](CO)[C@@H](O)[C@H](O)[C@H]1O [GANU, 1-(2-chloroethyl)-1-nitroso-3-(D-glucopyranosyl)urea, reference compound] |  |  | 32 |  |  |  |  |  |  | 0.39 |  |  |  |  |  |  |  |  |  |  | Inhibition ratio ([2]; 0.09 mg/kg/day i.p., 5 days): 4.2%; Inhibition ratio ([2]; 0.19 mg/kg/day i.p., 5 days): 79.2%; Inhibition ratio ([2]; 0.39 mg/kg/day i.p., 5 days): 100%; Inhibition ratio ([2]; 0.78 mg/kg/day i.p., 5 days): 100%; Inhibition ratio ([2]; 3.12 mg/kg/day i.p., 5 days): 100%; Toxic (number of mice died/number of mice used) ([2]; 25 mg/kg/day i.p., 5 days): 5/5; MTD (Maximum Tolerated Dose) ([2]; max dose, 100% inhibition without death, doses of the table in mg/kg/day, 10080 min): 12.5; life span of mice implanted with L-1210 [5]: increase the life span
O=NN(CCCl)C(=O)NC1O[C@H](CO)[C@@H](O)[C@H](O)[C@@H]1O (stereo partly drawn) [1-(2-chloroethyl)-1-nitroso-3-(D-mannopyranosyl)urea] |  |  |  |  |  |  |  |  |  |  |  |  |  |  |  |  |  |  |  |  | life span of mice implanted with L-1210 [5]: increase the life span
